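Interpolation was linear, between the two tested concentrations surrounding the appropriate level; five concentrations were tested over 48 hours in 96-well plates. GI50: concentration for 50% inhibition of growth.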 The source made the active and inactive calls. No stated cut-off is given here; in the data, active = GI50 up to about 1.1 µM and inactive = higher. Peptide text beside a SMILES is read from it.
Experiments:
Experiment in all cases: DTP human tumour cell line panel, 48 h
DMS-114 = system: DMS-114
LXFL 529 = system: LXFL 529
M19-MEL = system: M19-MEL
RXF 631 = system: RXF 631
XF498 = system: XF498
BT-549 = system: BT-549
T47D = system: T47D
DLD-1 = system: DLD-1
HOP-18 = system: HOP-18

Measured: GI50

CCOC(=O)c1ccc(N[C@@H]2c3cc4c(cc3C(C3=CC(=O)C(=O)C(OC)=C3)[C@H]3C(=O)OCC32)OCO4)cc1 (some centres not stated)
inactive: DMS-114 1.79 µM | LXFL 529 6.5 µM | M19-MEL 6.1 µM | RXF 631 1.91 µM | XF498 1.48 µM

CC(=O)C(=[N+]=[N-])C(=O)OC(C)(C)C#N
inactive: BT-549 > 10 µM | T47D > 10 µM

CC(=O)NN/C=N/C(C#N)=C(\N)C#N
inactive: BT-549 > 100 µM | T47D > 100 µM

CCOc1ccc2c(c1)[n+]([O-])c(-c1ccc([N+](=O)[O-])cc1)c(N)[n+]2[O-]
inactive: DLD-1 > 100 µM | DMS-114 29.6 µM | HOP-18 > 100 µM | LXFL 529 > 100 µM | M19-MEL > 100 µM | RXF 631 > 100 µM

COc1ccc(-c2oc(/C=N/NC(N)=S)c([N+](=O)[O-])c2-c2ccc(OC)c(OC)c2)cc1OC
inactive: DLD-1 24.3 µM | DMS-114 19.4 µM | LXFL 529 20.3 µM | M19-MEL 24.2 µM | RXF 631 30.4 µM | XF498 26.7 µM

COc1nc(N)c(NC2OC(CO)C(O)C2O)c(=O)[nH]1 (configuration not stated)
inactive: BT-549 > 100 µM | T47D > 100 µM

COC(=O)CC1CCN(C#N)CC1CC[N+](=O)[O-] (configuration not stated)
inactive: DLD-1 > 100 µM | DMS-114 > 100 µM | HOP-18 > 100 µM | LXFL 529 > 100 µM | M19-MEL > 100 µM | RXF 631 > 100 µM

O=C(/C=C\c1ccccc1)Oc1ccc(/C=C2\CCC/C(=C\c3ccc(OC(=O)/C=C\c4ccccc4)cc3)C2=O)cc1
inactive: BT-549 > 100 µM | T47D > 100 µM

COC(=O)C#Cc1ccc([N+](=O)[O-])cc1
inactive: BT-549 1.49 µM | T47D 1.45 µM

CCOC(=O)C(=O)Nc1c(C)cccc1C(C)(C)C
inactive: DMS-114 > 100 µM | HOP-18 > 100 µM | LXFL 529 > 100 µM | M19-MEL > 100 µM | RXF 631 > 100 µM | XF498 > 100 µM

O=C(O)C1OC(n2cc(F)c(=O)[nH]c2=O)CC1O (configuration not stated)
inactive: BT-549 99.1 µM | DLD-1 > 100 µM | DMS-114 > 92.3 µM | HOP-18 40.6 µM | LXFL 529 8.99 µM | M19-MEL > 83.2 µM | T47D > 100 µM | XF498 > 68.2 µM

COc1cc(Oc2c(O)c(C)c(OC)c(C(C)=O)c2O)c(C(C)=O)c(O)c1C
inactive: DLD-1 66.7 µM | DMS-114 47.5 µM | LXFL 529 49.5 µM | M19-MEL 55.5 µM | RXF 631 > 100 µM | XF498 59.6 µM

Cc1ccc(NC2=CC(=O)C(NO)c3ccccc32)cc1 (configuration not stated)
inactive: BT-549 3.66 µM | T47D 2.74 µM

O=Cc1c(O)c(C(=O)Nc2ccc3[nH]c(=O)[nH]c3c2)cc2ccccc12
inactive: DLD-1 > 100 µM | DMS-114 > 100 µM | HOP-18 > 100 µM | LXFL 529 > 100 µM | M19-MEL > 100 µM | RXF 631 > 100 µM

C=C(C)C12CC3CC(/C(=N/O)C(C1)/C3=N\O)[C@@]2(C)O (some centres not stated)
inactive: DLD-1 > 100 µM | DMS-114 > 100 µM | LXFL 529 > 100 µM | M19-MEL > 100 µM

N#Cc1c(-c2ccccc2)c(/C=N/c2cccc(C(F)(F)F)c2)c(=O)n2c1[nH]c1ccccc12
inactive: BT-549 48 µM | T47D 35.2 µM

Cc1c(C)c2c(c(N)c1C#N)C(=O)N(N)C2=O
inactive: BT-549 > 100 µM | T47D > 100 µM

Cc1ncc(-c2nnnn2-c2ccccc2)c(C(=O)O)n1
inactive: BT-549 > 100 µM | T47D > 100 µM

Cc1cc2c(c(/C=N/Cc3ccccc3)c1)OC1(C=C2)Oc2ccccc2C(=O)N1C (configuration not stated)
inactive: BT-549 23.5 µM | T47D 10.4 µM

COc1cc(S(=O)(=O)Nc2ccc(-c3csc(/N=C\c4cccs4)n3)cc2)ccc1Cl
inactive: BT-549 31.1 µM | T47D 19.2 µM

COc1cc(C(=O)C/C(CCCC(=O)Nc2ccccc2[N+](=O)[O-])=N/NC(=O)c2cc3ccccc3cc2O)ccc1O
inactive: DLD-1 36.7 µM | HOP-18 6.24 µM | RXF 631 > 71.4 µM | XF498 > 100 µM

CNC(=O)OCc1cc2ccncc2c2c1[nH]c1ccccc12
inactive: DLD-1 5.89 µM | DMS-114 > 100 µM | HOP-18 > 100 µM | LXFL 529 > 39.6 µM | M19-MEL > 100 µM | XF498 > 45.1 µM

CC(C)CC(NC(=O)C(CC(C)C)NC(=O)C(Cc1c[nH]cn1)NC(=O)C(C)NC(=O)C(NC(=O)C(C)NC(=O)C(Cc1c[nH]c2ccccc12)NC(=O)C(CCC(=O)O)NC(=O)C(N)Cc1ccccc1)C(C)C)C(N)=O (configuration not stated) (H-FEWAVAHLL-NH2; configuration not given here)
inactive: DLD-1 > 100 µM | DMS-114 > 100 µM | HOP-18 > 100 µM | LXFL 529 > 100 µM | M19-MEL > 100 µM | RXF 631 > 100 µM | T47D > 12.5 µM | XF498 > 100 µM

COc1ccc(C(c2c(O)c3ccccc3n(C)c2=O)c2c(O)c3ccccc3n(C)c2=O)cc1
inactive: DLD-1 37.5 µM | DMS-114 63.1 µM | HOP-18 35.7 µM | LXFL 529 46.1 µM | M19-MEL 98.4 µM | RXF 631 21.3 µM | XF498 99.8 µM

C/C=N\n1c(C)n[nH]c1=O
inactive: BT-549 > 100 µM | T47D > 100 µM

From ChEMBL document CHEMBL1201862, “PubChem BioAssay data set” (2004)
